The values that follow come from patent US6831075B2, “Heterocyclic substituted pyrazolones” (Cephalon, Inc., priority 1999, dated 2004).

The term inhibition denotes how much of the control response was suppressed.

Holding throughout (type): biochemical
The target of one assay is T1, baculoviral GST-MLK3KD (Homo sapiens, UniProt Q16584).
T1 construct: 2 μg/ml of baculoviral GST-MLK3KD; GST (N); host or cells: baculovirus expression system
In words: Mixed Lineage Kinase-3 inhibition assay (Millipore Multiscreen plate, 32P). The following applies: 1 uM compound, 100 μM ATP. The gist of the method:
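Radiometric filter-plate assay: 2 μg/ml baculoviral GST-MLK3KD with 500 μg/ml myelin basic protein, 100 μM ATP plus [γ-32P]ATP, in 20 mM Hepes pH 7, 10 mM MgCl2, 1 mM DTT, 2% DMSO. Incubated 15 min at 37 °C, stopped and precipitated with cold TCA, washed, then scintillation counted.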

In assay [1] the target is T2, recombinant human baculovirus-expressed VEGFR1 cytoplasmic domain (Homo sapiens, UniProt P17948).
T2 construct: recombinant human baculovirus-expressed VEGFR1 cytoplasmic domain; host or cells: baculovirus expression system
T2 sequence (P17948 781-1338 limits assumed): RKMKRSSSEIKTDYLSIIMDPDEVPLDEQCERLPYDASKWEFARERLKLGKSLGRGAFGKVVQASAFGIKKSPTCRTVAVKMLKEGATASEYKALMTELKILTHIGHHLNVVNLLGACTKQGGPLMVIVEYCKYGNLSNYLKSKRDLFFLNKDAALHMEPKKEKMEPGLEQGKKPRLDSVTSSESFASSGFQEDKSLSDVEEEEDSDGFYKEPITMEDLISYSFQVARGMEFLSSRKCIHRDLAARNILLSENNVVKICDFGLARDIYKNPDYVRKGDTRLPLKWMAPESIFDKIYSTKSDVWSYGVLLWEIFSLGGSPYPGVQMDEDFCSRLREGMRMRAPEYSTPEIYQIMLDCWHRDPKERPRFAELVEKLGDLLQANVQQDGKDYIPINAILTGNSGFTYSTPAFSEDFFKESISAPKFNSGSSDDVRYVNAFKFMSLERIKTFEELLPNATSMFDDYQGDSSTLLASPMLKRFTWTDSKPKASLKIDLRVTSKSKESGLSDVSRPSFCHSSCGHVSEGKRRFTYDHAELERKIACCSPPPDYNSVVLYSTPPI
In words: VEGFR1 kinase inhibition assay (ELISA-based, time-resolved fluorescence). Conditions: 1 uM compound, 30 μM ATP. The gist of the method: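 Prephosphorylated baculovirus-expressed VEGFR1 cytoplasmic domain (300 ng/ml) phosphorylates plate-bound PLC-γ/GST with 30 μM ATP, 10 mM MnCl2, pH 7.4, 15 min at 37 °C. Compounds tested at 1 μM. Phosphotyrosine detected with europium anti-phosphotyrosine antibody by time-resolved fluorescence.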
(In general: ELISA stands for enzyme-linked immunosorbent assay.)

In assay [2] the target is T3, recombinant human baculovirus-expressed FGFR1 cytoplasmic domain (Homo sapiens, UniProt P11362).
T3 construct: recombinant human baculovirus-expressed FGFR1 cytoplasmic domain; host or cells: baculovirus expression system
In words: FGFR1 kinase inhibition assay (ELISA-based, time-resolved fluorescence). Conditions: 1 uM compound; 20 μM ATP. The gist of the method:
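Prephosphorylated baculovirus FGFR1 cytoplasmic domain (15 ng/ml) phosphorylated plate-coated PLC-γ/GST with 20 μM ATP, 10 mM MnCl2, HEPES pH 7.4, 2% DMSO, 15 min at 37 °C. Compounds tested at 1 μM. Phosphotyrosine detected with europium-labelled antibody by time-resolved fluorescence.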

The target in assay [3] is T4, recombinant human baculoviral VEGFR2 cyctoplasmic domain (Homo sapiens, UniProt P35968).
T4 construct: recombinant human baculoviral VEGFR2 cyctoplasmic domain; host or cells: baculovirus expression system
In words: VEGFR2 kinase inhibition assay (ELISA-based, time-resolved fluorescence). Conditions: 1 uM compound, 30 μM ATP.

T1 sequence (Q16584 117-379 limits assumed): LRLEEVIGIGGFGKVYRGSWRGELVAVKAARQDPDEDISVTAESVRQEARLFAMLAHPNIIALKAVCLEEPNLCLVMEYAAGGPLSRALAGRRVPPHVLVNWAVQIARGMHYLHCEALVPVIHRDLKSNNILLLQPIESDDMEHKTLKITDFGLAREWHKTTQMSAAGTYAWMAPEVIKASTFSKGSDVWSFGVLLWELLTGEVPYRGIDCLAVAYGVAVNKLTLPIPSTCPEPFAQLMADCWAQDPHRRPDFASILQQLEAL
T4 sequence (P35968 786-1356 limits assumed): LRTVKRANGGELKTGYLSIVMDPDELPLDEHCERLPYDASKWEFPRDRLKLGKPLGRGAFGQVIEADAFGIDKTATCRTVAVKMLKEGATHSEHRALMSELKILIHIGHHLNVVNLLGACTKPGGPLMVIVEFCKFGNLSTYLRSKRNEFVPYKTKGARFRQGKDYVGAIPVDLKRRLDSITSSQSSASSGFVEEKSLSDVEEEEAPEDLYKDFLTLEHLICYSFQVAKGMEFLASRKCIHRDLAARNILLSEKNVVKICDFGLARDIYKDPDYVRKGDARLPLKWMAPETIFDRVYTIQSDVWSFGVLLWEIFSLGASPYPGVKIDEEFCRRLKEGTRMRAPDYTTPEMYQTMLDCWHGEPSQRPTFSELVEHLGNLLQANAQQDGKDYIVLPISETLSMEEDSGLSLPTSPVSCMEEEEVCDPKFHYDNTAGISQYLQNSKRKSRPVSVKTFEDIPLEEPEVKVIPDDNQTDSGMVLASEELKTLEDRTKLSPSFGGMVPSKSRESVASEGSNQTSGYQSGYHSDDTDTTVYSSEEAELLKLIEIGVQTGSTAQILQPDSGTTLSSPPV
T3 sequence (P11362 398-822 limits assumed): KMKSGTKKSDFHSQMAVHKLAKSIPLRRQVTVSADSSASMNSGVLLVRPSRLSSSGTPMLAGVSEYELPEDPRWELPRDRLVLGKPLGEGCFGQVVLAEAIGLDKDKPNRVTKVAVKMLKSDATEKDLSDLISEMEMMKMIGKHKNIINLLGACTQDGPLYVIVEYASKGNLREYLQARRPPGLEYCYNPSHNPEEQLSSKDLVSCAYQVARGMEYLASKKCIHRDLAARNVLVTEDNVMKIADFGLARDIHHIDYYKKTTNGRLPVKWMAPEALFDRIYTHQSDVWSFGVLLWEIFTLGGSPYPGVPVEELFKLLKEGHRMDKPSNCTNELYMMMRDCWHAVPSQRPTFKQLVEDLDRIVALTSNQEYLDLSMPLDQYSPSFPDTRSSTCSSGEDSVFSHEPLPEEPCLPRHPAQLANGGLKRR

On to `Cc1cc(C)c(C=C2C(=O)NN=C2C2c3ccccc3Oc3ccccc32)[nH]1` [Compound 2], for which, on baculoviral GST-MLK3KD, the “MLK-3 Kinase % inhibition @ 1 uM” value was −11%. The “VEGFR-1 kinase % inhibition @ 1 uM” value in assay [1] came out at 9%. Also, the “FGFR1 % inhibition @ 1 uM” value in assay [2] was found to be 33%. Further, the “VEGFR-2 kinase % inhibition @ 1 uM” value in assay [3] stood at 21%.
Turning to `O=C1NN=C(c2nccs2)C1=Cc1c[nH]c2ccccc12` [Compound 25, 4-(indol-3-ylmethylene)-3-(1,3-thiazol-2-yl)-2-pyrazolin-5-one], the inhibition at 1 µM on baculoviral GST-MLK3KD (read-out: MLK-3 Kinase % inhibition @ 1 uM) came to 48%; in assay [1] (read-out: VEGFR-1 kinase % inhibition @ 1 uM) it was 66%; in assay [2], 52%; in assay [3] (read-out: VEGFR-2 kinase % inhibition @ 1 uM), 64%.
`O=C1NN=C(c2ccoc2)C1=Cc1c[nH]c2ccc(OCc3ccccc3)cc12` [Compound 21]: the “MLK-3 Kinase % inhibition @ 1 uM” value at baculoviral GST-MLK3KD is given as 24%. Moreover, the “VEGFR-1 kinase % inhibition @ 1 uM” value in assay [1] is reported as 0%. Moreover, the “FGFR1 % inhibition @ 1 uM” value in assay [2] amounted to 15%. The “VEGFR-2 kinase % inhibition @ 1 uM” value in assay [3] came out at 12%.
Turning to `CC(C)Cn1cc(C=C2C(=O)NN=C2c2nccs2)c2ccccc21` [Compound 73], on baculoviral GST-MLK3KD, the “MLK-3 Kinase % inhibition @ 1 uM” value came out at 5%. Moreover, in assay [1], the “VEGFR-1 kinase % inhibition @ 1 uM” value is given as 12%. Also, in assay [2], the “FGFR1 % inhibition @ 1 uM” value was determined as 19%. For the same compound, the “VEGFR-2 kinase % inhibition @ 1 uM” value in assay [3] was found to be 15%.
For the compound `N#CCCn1cc(C=C2C(=O)NN=C2c2ccoc2)c2ccccc21` [Compound 65], at baculoviral GST-MLK3KD, the “MLK-3 Kinase % inhibition @ 1 uM” value is 7%. The “VEGFR-1 kinase % inhibition @ 1 uM” value in assay [1] was 22%. The “FGFR1 % inhibition @ 1 uM” value in assay [2] was determined as 21%. Also, the “VEGFR-2 kinase % inhibition @ 1 uM” value in assay [3] was 43%.
For `CCOC(=O)CCc1c(C(=O)OCC)[nH]c(C=C2C(=O)NN=C2c2ccoc2)c1CC(=O)OCC` [Compound 7] the same measures were 7%, 13%, 28% and −3%.
`O=C1NN=C(c2ccoc2)C1=Cc1ccc[nH]1` [Compound 12]: the “MLK-3 Kinase % inhibition @ 1 uM” value at baculoviral GST-MLK3KD is reported as 29%. In addition, the “VEGFR-1 kinase % inhibition @ 1 uM” value in assay [1] is given as 29%. Also, the “FGFR1 % inhibition @ 1 uM” value in assay [2] was determined as 39%. In assay [3], the “VEGFR-2 kinase % inhibition @ 1 uM” value was found to be 26%.
For the compound `Cc1cc(C)c(C=C2C(=O)NN=C2c2ccn(C)c2)[nH]1` [Compound 23], the “MLK-3 Kinase % inhibition @ 1 uM” value at baculoviral GST-MLK3KD turned out to be 69%. Besides, in assay [1], the “VEGFR-1 kinase % inhibition @ 1 uM” value stood at 2%. Besides, the “FGFR1 % inhibition @ 1 uM” value in assay [2] is reported as 31%. Further, the “VEGFR-2 kinase % inhibition @ 1 uM” value in assay [3] is listed as 7%.
In the case of `Cc1oc(-c2ccc(Cl)cc2)cc1C1=NNC(=O)C1=Cc1c[nH]c2ccccc12` [Compound 42], on baculoviral GST-MLK3KD, the “MLK-3 Kinase % inhibition @ 1 uM” value was determined as 21%. For the same compound, the “VEGFR-1 kinase % inhibition @ 1 uM” value in assay [1] was 13%. The “FGFR1 % inhibition @ 1 uM” value in assay [2] amounted to 32%. The “VEGFR-2 kinase % inhibition @ 1 uM” value in assay [3] is listed as 28%.
Turning to `Cc1c(I)[nH]c(C=C2C(=O)NN=C2c2ccoc2)c1I` [Compound 6], at baculoviral GST-MLK3KD, the “MLK-3 Kinase % inhibition @ 1 uM” value turned out to be 3%. Moreover, the “VEGFR-1 kinase % inhibition @ 1 uM” value in assay [1] amounted to 14%. Besides, in assay [2], the “FGFR1 % inhibition @ 1 uM” value was 20%. For the same compound, the “VEGFR-2 kinase % inhibition @ 1 uM” value in assay [3] was found to be 9%.
Consider `O=C1NN=C(c2ccoc2)C1=Cc1c[nH]c2ccccc12` [Compound 9], for which the “MLK-3 Kinase % inhibition @ 1 uM” value on baculoviral GST-MLK3KD is on record as 27%. The “VEGFR-1 kinase % inhibition @ 1 uM” value in assay [1] came out at 51%. Further, the “FGFR1 % inhibition @ 1 uM” value in assay [2] amounted to 17%. In assay [3], the “VEGFR-2 kinase % inhibition @ 1 uM” value was 49%.
With `Cc1cc(C)c(C=C2C(=O)NN=C2c2csc3ccccc23)[nH]1` [Compound 39], the “MLK-3 Kinase % inhibition @ 1 uM” value on baculoviral GST-MLK3KD was 55%. Further, the “VEGFR-1 kinase % inhibition @ 1 uM” value in assay [1] is 4%. For the same compound, the “FGFR1 % inhibition @ 1 uM” value in assay [2] is given as 13%. Also, in assay [3], the “VEGFR-2 kinase % inhibition @ 1 uM” value is listed as 13%.
For the compound `N#CCCn1cc(C=C2C(=O)NN=C2c2cccs2)c2ccccc21` [Compound 66], the “MLK-3 Kinase % inhibition @ 1 uM” value at baculoviral GST-MLK3KD is given as 11%. Also, in assay [1], the “VEGFR-1 kinase % inhibition @ 1 uM” value is 24%. Besides, the “FGFR1 % inhibition @ 1 uM” value in assay [2] was 29%. Further, the “VEGFR-2 kinase % inhibition @ 1 uM” value in assay [3] amounted to 32%.
Regarding `Cn1cc(C=C2C(=O)NN=C2c2cccs2)c2ccccc21` [Compound 63], the “MLK-3 Kinase % inhibition @ 1 uM” value on baculoviral GST-MLK3KD was determined as 78%. In addition, in assay [1], the “VEGFR-1 kinase % inhibition @ 1 uM” value came out at 40%. Moreover, the “FGFR1 % inhibition @ 1 uM” value in assay [2] is 38%. Besides, the “VEGFR-2 kinase % inhibition @ 1 uM” value in assay [3] is recorded as 75%.
Regarding `Cc1cc(C)c(C=C2C(=O)NN=C2c2cc(-c3ccc(Cl)cc3)oc2C)[nH]1` [Compound 41], the “MLK-3 Kinase % inhibition @ 1 uM” value on baculoviral GST-MLK3KD is on record as 10%. In addition, in assay [1], the “VEGFR-1 kinase % inhibition @ 1 uM” value was 5%. Further, the “FGFR1 % inhibition @ 1 uM” value in assay [2] came to 21%. Moreover, the “VEGFR-2 kinase % inhibition @ 1 uM” value in assay [3] came to 13%.
With `Cc1ccc2c(C=C3C(=O)NN=C3c3ccco3)c[nH]c2c1` [Compound 46], the “MLK-3 Kinase % inhibition @ 1 uM” value on baculoviral GST-MLK3KD is 36%. Also, the “VEGFR-1 kinase % inhibition @ 1 uM” value in assay [1] stood at 41%. The “FGFR1 % inhibition @ 1 uM” value in assay [2] is reported as 25%. In addition, the “VEGFR-2 kinase % inhibition @ 1 uM” value in assay [3] came out at 71%.
